Values of other authors in US7595169B2, “Method for determining percent platelet aggregation” (Accumetrics, Inc., priority 2005, dated 2009).

Test system: platelet aggregation
Conditions: patients with stable angina pectoris scheduled for elective coronary stent placement; literature study

COC(=O)[C@H](c1ccccc1Cl)N1CCc2sccc2C1 [clopidogrel]
patients receiving the drug who did not achieve the expected platelet aggregation inhibition: at least 10%
